Data from patent US20240150843A1, “METHODS AND MATERIALS FOR IDENTIFYING MYELOMA STAGE AND DRUG SENSITIVITY AND TREATING MYELOMA” (Mayo Foundation for Medical Education and Research, priority 2021, published 2024).

Key:
[1] = test system: XG1LenRes cells; test: MTT assay, PBK inhibitor alone or combined with lenalidomide or bortezomib; assay type: cell-based, human; settings: XG1LenRes (IMiD resistant cell line)
Procedure: (§1) FIGS. 11A and 11B show MM cell growth and drug response after depletion of PRR11 using CRISPR-Cas9 technology or inhibition of PBK in HMCLs. (A) The lentivirus harboring non-targeting control (NS) and two PRR11 CRISPR gRNAs (#1 and #2) expressing cassette were used to infect two MM cell lines (JJN3 and […]). After confirming depletion of PRR11 in HMCLs by western blot (bottom), an MTT assay was performed to evaluate cell proliferation and drug response to lenalidomide or bortezomib in both control virus-transduced cells and cells with PRR11 depletion. Depletion of PRR11 neither changed MM cell proliferation nor affected lenalidomide and bortezomib sensitivity. (B) JJN3 and XG1LenRes, IMiD resistant cell lines, were treated with a PBK specific inhibitor, HI-TOPK-032 alone (Calbiochem) or combined with either lenalidomide (Len) or bortezomib (Bor) to evaluate synergy by the MTT assay. Inhibition of PBK activity using Hi-TOPK-032, enhanced both lenalidomide and bortezomib sensitivity in JJN3 and XG1LenRes cells.
(§2) Analysis of NM cell proliferation and drug response after modulating PRR11 expression and PBK1 activity: PRR11 and PBK1 expression also was associated with survival and drug response in the CoMMpass dataset. Using CRISPR-Cas9 technology, MM cell proliferation and drug response were investigated after depletion of PRR11. Briefly, the lentivirus harboring non-targeting control and two PRR11 CRISPR gRNA expressing cassettes were prepared and used to infect MM cell lines using methods described elsewhere (Ran et al., Nat Protoc 8(11):2281-2308, 2013; and Zhu et al., Cancer Res 77(16):4317-4327, 2017). After confirming depletion of PRR11 in HMCLs by western blot, an MTT assay was performed to evaluate cell proliferation and drug response to lenalidomide or bortezomib in both control virus-transduced cells and cells with PRR11 depletion. For PBK, JJN3 and XG1LenRes (IMiD resistant cell lines) were treated with a PBK specific inhibitor (HI-TOPK-032; Calbiochem; San Diego, CA) either alone or in combination with either lenalidomide or bortezomib to evaluate their effects by MTT assay.

[2] = test system: JJN3 cells; test: as above; assay type: cell-based, human; settings: JJN3 (IMiD resistant cell line)
Procedure: as §1, §2

N#Cc1c2nc3ccccc3nc2n2ccc(NC(=O)c3cccs3)cc12 [Hi-TOPK-032]
enhanced: bortezomib sensitivity ([1]; combined with bortezomib) | lenalidomide sensitivity ([1]; combined with lenalidomide) | bortezomib sensitivity ([2]; combined with bortezomib) | lenalidomide sensitivity ([2]; combined with lenalidomide)
